Assay: trans-anethole and vanillin in compositions of modafinil (Example 3)
Format: physicochemical
Experimental: 200 mg of modafinil were weighted in two test tubes (A and B). 2 mL of benzyl alcohol were added to test tube A and 200 mg of vanillin, 2 mL of anethole and 2 mL of benzyl alcohol were added to test tube B. The test tubes were stirred and heated to 60° C. Further, the tubes were cooled at room temperature.

## NC(=O)C[S+]([O-])C(c1ccccc1)c1ccccc1 (centres unmarked) [modafinil]
Tube A: 200 mg in 2 mL benzyl alcohol
  crystallization on cooling at room temperature: promptly crystallized
Tube B: 200 mg vanillin, 2 mL anethole and 2 mL benzyl alcohol, 12 hours after cooling
  crystallization after cooling at room temperature: no crystals were noted

Source: patent publication US20080064675A1, “Use of Aromatic flavoring agents with high melting point as solubilizing agents” (priority 2005, published 2008)
